Source: ChEMBL document CHEMBL5620382, “Fluoroindole chalcone analogues targeting the colchicine binding site of tubulin for colorectal oncotherapy” (Eur J Med Chem, 2023)
The source made the active and inactive calls. The calls are words filed in the database; no cut-off is given here.

System: HCT-116
Experiment: Cytotoxicity against human HCT-116 cells assessed as growth inhibition measured after 48 hrs by CCK-8 assay
Format: functional
Conditions: not given

Q: For `COc1cc(C(=O)/C(C)=C/c2c[nH]c3cc(C)ccc23)cc(OC)c1OC`, which GI50 is on record?
A: 46 nM

Q: How did the GI50 turn out when `COc1ccc(C(=O)/C(C)=C/c2c[nH]c3ccccc23)cc1OC` was run?
A: 74 nM

Q: Which GI50 does the source give for `COc1cc(C(=O)/C(C)=C/c2c[nH]c3c([N+](=O)[O-])cccc23)cc(OC)c1OC` here?
A: 91 nM

Q: With `COc1cc(C(=O)/C(C)=C/c2c[nH]c3c(C)cccc23)cc(OC)c1OC` as the molecule, how does the GI50 read?
A: 107 nM

Q: `COC(=O)c1ccc2c(/C=C(\C)C(=O)c3cc(OC)c(OC)c(OC)c3)c[nH]c2c1` was tested. Which GI50 did it give?
A: 536 nM

Q: For `COc1cc(C(=O)/C(C)=C/c2c[nH]c3ccccc23)cc2c1OCO2`, which GI50 is on record?
A: 61 nM

Q: For `COc1cc(C(=O)/C(C)=C/c2c[nH]c3ccc(Cl)cc23)cc(OC)c1OC`, which GI50 is on record?
A: 70 nM

Q: With `CC/C(=C\c1c[nH]c2ccccc12)C(=O)c1cc(OC)c(OC)c(OC)c1` as the molecule, how does the GI50 read?
A: 43 nM

Q: `COc1cc(C(=O)/C(C)=C/c2c[nH]c3cnccc23)cc(OC)c1OC` was tested. Which GI50 did it give?
A: 821 nM

Q: With `COc1cc(C(=O)/C(C)=C/c2c[nH]c3cccnc23)cc(OC)c1OC` as the molecule, how does the GI50 read?
A: 59 nM

Q: Which GI50 does the source give for `COc1cc(C(=O)/C(C)=C/c2c[nH]c3ccc(F)cc23)cc(OC)c1OC` here?
A: 29 nM

Q: `COc1cc(C(=O)/C(C)=C/c2cnn3ccccc23)cc(OC)c1OC` was tested. Which GI50 did it give?
A: 79 nM

Q: Which GI50 does the source give for `COc1cc(C(=O)/C(C)=C/c2c[nH]c3ccc([N+](=O)[O-])cc23)cc(OC)c1OC` here?
A: 74 nM

Q: For `COc1cc(C(=O)/C(C)=C/c2cnc3ccccn23)cc(OC)c1OC`, which GI50 is on record?
A: 71 nM

Q: For `COc1cc(C(=O)/C(C)=C/c2c[nH]c3ccccc23)cc(OC)c1OC`, which GI50 is on record?
A: 0.99 nM

Q: For `COc1cccc2c1CC/C(=C\c1c[nH]c3ccccc13)C2=O`, which GI50 is on record?
A: > 10000 nM

Q: `C/C(=C\c1c[nH]c2ccccc12)C(=O)c1ccccc1` was tested. Which GI50 did it give?
A: > 15000 nM

Q: Which GI50 does the source give for `COc1cc(C(=O)/C(C)=C/c2csc3ccccc23)cc(OC)c1OC` here?
A: 200 nM

Q: Which GI50 does the source give for `O=C(/C=C/c1c[nH]c2ccccc12)c1ccccc1` here?
A: > 10000 nM

Q: Which GI50 does the source give for `COc1ccc2c(/C=C(\C)C(=O)c3cc(OC)c(OC)c(OC)c3)c[nH]c2c1` here?
A: 74 nM

Q: How did the GI50 turn out when `COc1cc(C(=O)/C(C)=C/c2c[nH]c3cc(C(=O)O)ccc23)cc(OC)c1OC` was run?
A: > 10000 nM

Q: Which GI50 does the source give for `COc1cc(C(=O)/C(C)=C/c2c[nH]c3ccc(Br)cc23)cc(OC)c1OC` here?
A: > 8000 nM

Q: With `COc1cc(C(=O)/C(C)=C/c2c[nH]c3ccncc23)cc(OC)c1OC` as the molecule, how does the GI50 read?
A: 1080 nM

Q: `COc1cccc(C(=O)/C(C)=C/c2c[nH]c3ccccc23)c1` was tested. Which GI50 did it give?
A: 348 nM

Q: Which GI50 does the source give for `COc1cc(C(=O)/C(C)=C/c2c[nH]c3cc([N+](=O)[O-])ccc23)cc(OC)c1OC` here?
A: 76 nM

Q: `COc1cc(C(=O)/C(C)=C/c2c[nH]c3ccc(C)cc23)cc(OC)c1OC` was tested. Which GI50 did it give?
A: 71 nM

Q: With `COc1cc(C(=O)/C(C)=C/c2c[nH]c3ncccc23)cc(OC)c1OC` as the molecule, how does the GI50 read?
A: 49 nM

Q: How did the GI50 turn out when `COc1cncc(C(=O)/C(C)=C/c2c[nH]c3ccccc23)c1` was run?
A: 240 nM

Q: `COc1cc(C(=O)/C(C)=C/c2c[nH]c3cccc(C)c23)cc(OC)c1OC` was tested. Which GI50 did it give?
A: 602 nM

Q: How did the GI50 turn out when `COc1cc(C(=O)/C(C)=C/c2c[nH]c3cc(N)ccc23)cc(OC)c1OC` was run?
A: 69 nM

Q: With `COc1cc(OC)cc(C(=O)/C(C)=C/c2c[nH]c3ccccc23)c1` as the molecule, how does the GI50 read?
A: 65 nM

System: HCT-116
Experiment: Antiproliferative activity against human HCT116 cells assessed as inhibition of proliferation measured after 24 hrs by CCK-8 assay
Format: functional, cell-based
Conditions: HCT-116, 24 h

Q: For `CC(=O)O[C@H]1C(=O)[C@@]2(C)[C@H]([C@H](OC(=O)c3ccccc3)[C@]3(O)C[C@H](OC(=O)[C@H](O)[C@@H](NC(=O)c4ccccc4)c4ccccc4)C(C)=C1C3(C)C)[C@]1(OC(C)=O)CO[C@@H]1C[C@@H]2O` [PACLITAXEL], which IC50 is on record?
A: 24 nM

Q: `COc1ccc(/C=C\c2cc(OC)c(OC)c(OC)c2)cc1O` [COMBRETASTATIN A4] was tested. Which IC50 did it give?
A: 15.8 nM

System: HCT-116
Experiment: Anti-tumor activity against human HCT-116 cells xenografted in BALB/c mouse assessed as inhibition of tumor growth at 7 mg/kg, ip thrice a week for three weeks
Format: functional, organism-based
Conditions: time 3.0 weeks

Q: `CC(=O)O[C@H]1C(=O)[C@@]2(C)[C@H]([C@H](OC(=O)c3ccccc3)[C@]3(O)C[C@H](OC(=O)[C@H](O)[C@@H](NC(=O)c4ccccc4)c4ccccc4)C(C)=C1C3(C)C)[C@]1(OC(C)=O)CO[C@@H]1C[C@@H]2O` [PACLITAXEL] was tested. Which Activity did it give?
A: Active
